According to article PMC5638327, “Comparison of bioavailability and antiplatelet action of ticagrelor in patients with ST-elevation myocardial infarction and non-ST-elevation myocardial infarction: A prospective, observational, single-centre study” (PLoS ONE, 2017):
Read-outs that look alike come from different tables or passages of the source.

Tests used:
[1] = Pharmacokinetic assessment: plasma concentrations by liquid chromatography tandem mass spectrometry after ticagrelor loading dose; assay type: in vivo, human (patients with myocardial infarction); details: both sexes, human, oral, 180 mg, internal pilot study, first 15 patients with NSTEMI, mean and SD, read-out: AUC(0–6)
[2] = as above; assay type: in vivo, human (patients with myocardial infarction); details: for Tmax / AUC(0-t) / Cmax: both sexes, human, plasma, 180 mg
Protocol: Consecutive STEMI and NSTEMI patients admitted to the study site (Cardiology Department, Dr. A. Jurasz University Hospital, Bydgoszcz, Poland) were screened for eligibility. After admission to the study centre, confirmation of the initial diagnosis of STEMI or NSTEMI, and provision of a written informed consent to participate in the trial, all study participants received an oral 300 mg LD of plain aspirin (Polpharma SA, Starogard Gdański, Poland) and 180 mg LD ticagrelor in integral tablets with 250 mL tap water. Subsequently, within 15 minutes of ticagrelor LD, all patients underwent coronary angiography followed by PCI as required. During the periprocedural period, all study participants received unfractionated heparin in body weight adjusted dose according to the European Society of Cardiology (ESC) recommendations. Plasma concentrations of ticagrelor and its active metabolite, as well as their antiplatelet effect, were evaluated according to the sampling schedule employed at our centre in previous PK/PD study (pre-treatment, 0.5 h, 1 h, 2 h, 3 h, 4 h, 6 h and 12 h post ticagrelor LD).
Blood samples for PK/PD evaluation were obtained from an 18-gauge cannula inserted into one of the forearm veins. The first 5 mL blood was discarded to avoid spontaneous platelet activation. In each patient specimens were collected at the eight pre-defined time. Detailed description of blood sample processing has been published in the study protocol (S1 File).
Ticagrelor and AR-C124910XX plasma concentrations were analyzed with liquid chromatography coupled with tandem mass spectrometry, using a validated method. Lower limits of quantification were 4.69 ng/mL for both ticagrelor and AR-C124910XX.
Statistical calculations were performed using the Statistica 12.5 package (StatSoft, Tulsa, OK, USA). Pharmacokinetic calculations and plots were made using the Matlab R2014 software (Mathworks, Natick, MA, USA); trapezoidal rule was applied to calculate AUC. Data for pharmacokinetic features of ticagrelor and AR-C124910XX, pharmacodynamic outcome variables, creatinine, glomerular filtration rate and left ventricle ejection fraction were presented as medians and interquartile ranges. Data for heart rate, systolic and diastolic blood pressure, age and body mass index were presented as means with standard deviations. […] Continuous variables were compared between both study groups with the Student’s t-test and Mann-Whitney U test, depending on the presence or absence of the normal distribution (as assessed by the Shapiro-Wilk test). Comparisons between categorical variables were performed by the chi-square test, with Yates's correction if necessary, or using Fisher's exact test. […]
Blood samples for pharmacokinetic and phar- infarction; PCI, percutaneous coronary intervention; PD, macodynamic assessment will be drawn at eight prede- pharmacodynamics; PK, pharmacokinetics; STEMI, ﬁned time points according to the blood sampling ST-elevation myocardial infarction. schedule already used at our site in a previous study
( pretreatment baseline, 30 min, 1, 2, 3, 4, 6 andsamples will be stored at temperature below −60°C until 12 hours post-ticagrelor LD— as shown in ﬁgure 1). 31 analysed.
All enrolled patients with ﬁnally unconﬁrmed initial Venous blood for the assessment of pharmacodynam-diagnosis of AMI will be excluded from the primar y ana- ics with the vasodilator-stimulated phosphoprotein lysis. Patients qualiﬁed for urgent coronar y arter y bypass (VASP) assay and multiple electrode aggregometr y surgery within the blood sampling period also will not (MEA) will be collected into trisodium citrate and be included in the analysis. All study participants not hirudin vacuum test tubes, respectively. The ﬁrst 3–5mL receiving PCI will be reported. of blood will be discarded to avoid spontaneous platelet Study population activation. The pharmacodynamic analysis will be per- […]

[3] = po, NSTEMI patients, oral 180 mg ticagrelor LD, 0 to 12 hours, median [interquartile range]
[4] = po, STEMI patients, oral 180 mg ticagrelor LD, 0 to 12 hours, median [interquartile range]

CCCSc1nc(N[C@@H]2C[C@H]2c2ccc(F)c(F)c2)c2nnn([C@@H]3C[C@H](OCCO)[C@@H](O)[C@H]3O)c2n1 [ticagrelor]
AUC(0-t) [1]: 6410 ± 4080 ng·h/mL | Tmax ([2]; oral, NSTEMI opioid-treated (morphine) patients (second value of the pair), post hoc analysis, median [interquartile range]): 4 h | Tmax ([2]; oral, NSTEMI patients without morphine (first value of the pair), post hoc analysis, median [interquartile range]): 1 h | AUC(0-t) ([2]; oral, internal pilot study, first 30 patients with STEMI, mean and SD, read-out: AUC(0–6)): 2380 ± 2280 ng·h/mL | AUC(0-t) ([2]; po, NSTEMI patients (n = 24), oral 180 mg ticagrelor LD, median [interquartile range], read-out: AUC(0–6)): 3990 ng·h/mL | Cmax [2, 3]: 1160 ng/mL | Tmax [2, 3]: 2.5 h | AUC(0-t) ([2]; po, NSTEMI patients, oral 180 mg ticagrelor LD, median [interquartile range], read-out: AUC(0–12)): 8600 ng·h/mL | AUC(0-t) ([2]; po, STEMI patients (n = 49), oral 180 mg ticagrelor LD, median [interquartile range], read-out: AUC(0–6)): 2490 ng·h/mL | Cmax [2, 4]: 1110 ng/mL | Tmax [2, 4]: 4 h | AUC(0-t) ([2]; po, STEMI patients, oral 180 mg ticagrelor LD, median [interquartile range], read-out: AUC(0–12)): 5680 ng·h/mL | lower AUC(0–6) in STEMI than in NSTEMI patients ([2]; first 6 h after 180 mg ticagrelor LD): 38%
